Molecular target: T1, human PTH1 receptor (Homo sapiens, UniProt Q03431)
T1 sequence (Q03431 27-593): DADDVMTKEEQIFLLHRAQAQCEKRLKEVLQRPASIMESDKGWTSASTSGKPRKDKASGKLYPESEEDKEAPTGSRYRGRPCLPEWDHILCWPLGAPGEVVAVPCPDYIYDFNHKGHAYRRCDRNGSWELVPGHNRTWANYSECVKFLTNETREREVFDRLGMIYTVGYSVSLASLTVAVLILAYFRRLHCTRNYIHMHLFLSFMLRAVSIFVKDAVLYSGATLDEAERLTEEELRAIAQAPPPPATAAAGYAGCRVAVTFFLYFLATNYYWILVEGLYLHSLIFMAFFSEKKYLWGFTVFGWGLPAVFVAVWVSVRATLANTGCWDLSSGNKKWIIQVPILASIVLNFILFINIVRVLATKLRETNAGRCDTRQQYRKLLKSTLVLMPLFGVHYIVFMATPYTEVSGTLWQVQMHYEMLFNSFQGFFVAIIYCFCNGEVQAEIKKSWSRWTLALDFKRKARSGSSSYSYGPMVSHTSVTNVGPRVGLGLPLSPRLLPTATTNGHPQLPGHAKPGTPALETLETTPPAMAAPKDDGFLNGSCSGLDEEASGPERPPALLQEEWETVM
Test: In vitro cAMP signal activity in HKRK-B7 cells (LLC-PK1 cells overexpressing the human PTH1 receptor)
Format: cell-based
Conditions: HKRK-B7 cells; compound at 1×10^−3 M; cAMP produced as percentage of that produced by hPTH(1-34) at 100 nM

SMILES	cAMP production activity (%)
Cc1cc(C(=O)N(C)C)ccc1CCS(=O)(=O)N1CCC2(CC1)N=C(c1cccc(COCC(F)(F)C(F)F)c1)NC2=O [Compound 170, 3,N,N-trimethyl-4-(2-{4-oxo-2-[3-(2,2,3,3-tetrafluoro-propoxymethyl)-phenyl]-1,3,8-triaza-spiro[4.5]dec-1-ene-8-sulfonyl}-ethyl)-benzamide]	77%
Cc1cc(C(=O)N(C)C)ccc1CCS(=O)(=O)N1CCC2(CC1)N=C(COc1ccc(Cl)cc1Cl)NC2=O [Compound 131, 4-{2-[2-(2,4-dichloro-phenoxymethyl)-4-oxo-1,3,8-triaza-spiro[4.5]dec-1-ene-8-sulfonyl]-ethyl}-3,N,N-trimethyl-benzamide]	72%
Cc1cc(CN2C(=O)NC(C)(C)C2=O)cc(C)c1CCS(=O)(=O)N1CCC2(CC1)N=C(C1CCC(CCC(F)(F)F)CC1)NC2=O (stereo not shown) [Compound 775, 3-[3,5-dimethyl-4-(2-{4-oxo-2-[4-(3,3,3-trifluoro-propyl)-cyclohexyl]-1,3,8-triaza-spiro[4.5]dec-1-ene-8-sulfonyl}-ethyl)-benzyl]-5,5-dimethyl-imidazolidine-2,4-dione]	70%
Cc1cc(C(=O)N2CCC(C)(O)CC2)cc(C)c1/C=C/S(=O)(=O)N1CCC2(CC1)N=C(c1ccc3cc[nH]c3c1)NC2=O [Compound 1208, 8-{(E)-2-[4-(4-hydroxy-4-methyl-piperidine-1-carbonyl)-2,6-dimethyl-phenyl]-ethenesulfonyl}-2-(1H-indol-6-yl)-1,3,8-triaza-spiro[4.5]dec-1-en-4-one]	65%
Cc1cc(CN2CCCC2=O)cc(C)c1/C=C/S(=O)(=O)N1CCC2(CC1)N=C(C1CCC(CCC(F)(F)F)CC1)NC2=O (stereo not shown) [Compound 556, 8-{(E)-2-[2,6-dimethyl-4-(2-oxo-pyrrolidin-1-ylmethyl)-phenyl]-ethenesulfonyl}-2-[4-(3,3,3-trifluoro-propyl)-cyclohexyl]-1,3,8-triaza-spiro[4.5]dec-1-en-4-one]	19%
Cc1cc(C(=O)N2CCC(C)(O)CC2)cc(C)c1/C=C/S(=O)(=O)N1CCC2(CC1)N=C(c1ccc(F)c(C(F)F)c1)NC2=O [Compound 1217, 2-(3-difluoromethyl-4-fluoro-phenyl)-8-{(E)-2-[4-(4-hydroxy-4-methyl-piperidine-1-carbonyl)-2,6-dimethyl-phenyl]-ethenesulfonyl}-1,3,8-triaza-spiro[4.5]dec-1-en-4-one]	68%
CCCCCCCCCCCCCC1=NC2(CCN([S@TB18](=O)(=O)CCc3c(C)cc(N(C)C(N)=O)cc3C)CC2)C(=O)N1 [Compound 1140, 1-{3,5-dimethyl-4-[2-(4-oxo-2-tridecyl-1,3,8-triaza-spiro[4.5]dec-1-ene-8-sulfonyl)-ethyl]-phenyl}-1-methyl-urea]	55%
CCCCCc1ccc(C2=NC3(CCN(S(=O)(=O)CCc4c(C)cc(N(C)C(N)=O)cc4C)CC3)C(=O)N2)cc1OC [Compound 1354, 1-(4-{2-[2-(3-methoxy-4-pentyl-phenyl)-4-oxo-1,3,8-triaza-spiro[4.5]dec-1-ene-8-sulfonyl]-ethyl}-3,5-dimethyl-phenyl)-1-methyl-urea]	128%
Cc1cc(S(=O)(=O)NCCN2CCOCC2)ccc1/C=C/S(=O)(=O)N1CCC2(CC1)N=C(c1cccc(C(F)(F)F)c1)NC2=O [Compound 218, 3-methyl-N-(2-morpholin-4-yl-ethyl)-4-{(E)-2-[4-oxo-2-(3-trifluoromethyl-phenyl)-1,3,8-triaza-spiro[4.5]dec-1-ene-8-sulfonyl]-vinyl}-benzenesulfonamide]	72%
CC(=O)OC[C@H](CN(C(C)=O)c1ccc(CCS(=O)(=O)N2CCC3(CC2)N=C(c2ccc(F)c(C(F)(F)F)c2)NC3=O)c(C)c1)OC(C)=O [Compound 153, acetic acid (S)-1-acetoxymethyl-2-[acetyl-(4-{2-[2-(4-fluoro-3-trifluoromethyl-phenyl)-4-oxo-1,3,8-triaza-spiro[4.5]dec-1-ene-8-sulfonyl]-ethyl}-3-methyl-phenyl)-amino]-ethyl ester]	59%
CC(=O)N(c1ccc(CCS(=O)(=O)N2CCC3(CC2)N=C(c2cccc(OC(F)(F)F)c2)NC3=O)c(C)c1)C1CCCC1 [Compound 678, N-Cyclopentyl-N-(3-methyl-4-{2-[4-oxo-2-(3-trifluoromethoxy-phenyl)-1,3,8-triaza-spiro[4.5]dec-1-ene-8-sulfonyl]-ethyl}-phenyl)-acetamide]	86%
CN(C(=O)c1cccc(C2=NC3(CCN(S(=O)(=O)c4cccc(Cl)c4)CC3)C(=O)N2)c1)c1ccccc1 [Compound 349, 3-[8-(3-chloro-benzenesulfonyl)-4-oxo-1,3,8-triaza-spiro[4.5]dec-1-en-2-yl]-N-methyl-N-phenyl-benzamide]	11%
Cc1cc(C(=O)N2CCN(C)CC2)ccc1/C=C/S(=O)(=O)N1CCC2(CC1)N=C(c1cccc(C(F)(F)F)c1)NC2=O [Compound 216, 8-{(E)-2-[2-methyl-4-(4-methyl-piperazine-1-carbonyl)-phenyl]-ethenesulfonyl}-2-(3-trifluoromethyl-phenyl)-1,3,8-triaza-spiro[4.5]dec-1-en-4-one]	84%
Cc1cc(CN2C(=O)NC(C)(C)C2=O)cc(C)c1/C=C/S(=O)(=O)N1CCC2(CC1)N=C(C1CCC(C)CC1)NC2=O (stereo not shown) [Compound 519, 3-(3,5-dimethyl-4-{(E)-2-[2-(4-methyl-cyclohexyl)-4-oxo-1,3,8-triaza-spiro[4.5]dec-1-ene-8-sulfonyl]-vinyl}-benzyl)-5,5-dimethyl-imidazolidine-2,4-dione]	72%
O=C1NC(c2ccc(Cl)cc2Cl)=NC12CCN(S(=O)(=O)/C=C/c1cccc3c1ccn3C[C@H](O)CO)CC2 [Compound 249, 2-(2,4-dichloro-phenyl)-8-{(E)-2-[1-((S)-2,3-dihydroxy-propyl)-1H-indol-4-yl]-ethenesulfonyl}-1,3,8-triaza-spiro[4.5]dec-1-en-4-one]	71%
Cc1cc(C(=O)N2CCC(C)(O)CC2)cc(C)c1/C=C/S(=O)(=O)N1CCC2(CC1)N=C(c1ccc(Cl)c(Cl)c1)NC2=O [Compound 1185, 2-(3,4-Dichloro-phenyl)-8-{(E)-2-[4-(4-hydroxy-4-methyl-piperidine-1-carbonyl)-2,6-dimethyl-phenyl]-ethenesulfonyl}-1,3,8-triaza-spiro[4.5]dec-1-en-4-one]	102%
Cc1cc(N2C(=O)CNC2=O)ccc1CCS(=O)(=O)N1CCC2(CC1)N=C(C1CCC(C(F)(F)F)CC1)NC2=O (stereo not shown) [Compound 947, 3-(3-methyl-4-{2-[4-oxo-2-(4-trifluoromethyl-cyclohexyl)-1,3,8-triaza-spiro[4.5]dec-1-ene-8-sulfonyl]-ethyl}-phenyl)-imidazolidine-2,4-dione]	89%
Cc1cc(C(=O)N2CCC(O)(CF)CC2)cc(C)c1/C=C/S(=O)(=O)N1CCC2(CC1)N=C(c1ccc(C(F)(F)F)c(OCC(F)(F)C(F)F)c1)NC2=O [Compound 1274, 8-{(E)-2-[4-(4-fluoromethyl-4-hydroxy-piperidine-1-carbonyl)-2,6-dimethyl-phenyl]-ethenesulfonyl}-2-[3-(2,2,3,3-tetrafluoro-propoxy)-4-trifluoromethyl-phenyl]-1,3,8-triaza-spiro[4.5]dec-1-en-4-one]	81%
Cc1cc(N(C)C(N)=O)cc(C)c1/C=C/S(=O)(=O)N1CCC2(CC1)N=C(c1cccc(-c3cccc(-c4ccccc4)c3)c1)NC2=O [Compound 1157, 1-{3,5-Dimethyl-4-[(E)-2-(4-oxo-2-[1,1′;3′,1″]terphenyl-3-yl-1,3,8-triaza-spiro[4.5]dec-1-ene-8-sulfonyl)-vinyl]-phenyl}-1-methyl-urea]	44%
Cc1cc(N2C(=O)NC(CO)C2=O)cc(C)c1CCS(=O)(=O)N1CCC2(CC1)N=C([C@H]1CC[C@H](C)CC1)NC2=O (stereo partly shown) [Compound 1299, 3-(3,5-Dimethyl-4-{2-[2-(4-methyl-cyclohexyl)-4-oxo-1,3,8-triaza-spiro[4.5]dec-1-ene-8-sulfonyl]-ethyl}-phenyl)-5-hydroxymethyl-imidazolidine-2,4-dione]	87%
Cc1cc(C(=O)N2CCC(C)(O)CC2)cc(C)c1/C=C/S(=O)(=O)N1CCC2(CC1)N=C(c1ccc(C(F)(F)C(F)(F)F)cc1)NC2=O [Compound 1195, 8-{(E)-2-[4-(4-hydroxy-4-methyl-piperidine-1-carbonyl)-2,6-dimethyl-phenyl]-ethenesulfonyl}-2-(4-pentafluoroethyl-phenyl)-1,3,8-triaza-spiro[4.5]dec-1-en-4-one]	82%
CC(=O)Nc1ccc(CCS(=O)(=O)N2CCC3(CC2)N=C(C2CCC(CCCF)CC2)NC3=O)c(C)c1 (stereo not shown) [Compound 1064, N-[4-(2-{2-[4-(3-Fluoro-propyl)-cyclohexyl]-4-oxo-1,3,8-triaza-spiro[4.5]dec-1-ene-8-sulfonyl}-ethyl)-3-methyl-phenyl]-acetamide]	73%
